This passage reports pest or weed control, melting point and inhibition of growth results from US11192867B2, “Microbiocidal oxadiazole derivatives” (SYNGENTA PARTICIPATIONS AG, priority 2016, dated 2021).

For one series, the system named is Phakopsora pachyrhizi. Put plainly: Fungicidal activity against Phakopsora pachyrhizi / soybean / leaf disc preventative (Asian soybean rust). The class given is in vivo. To be noted: foliar, 200 ppm in the applied formulation, soybean leaf disks, vs untreated control, read-out: disease control. The essentials:
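Soybean leaf discs on water agar sprayed with compound diluted in water, then inoculated with spores on the lower surface one day later. Kept 24-36 h dark, 20 °C, 75% rh, then 12 h light/12 h dark. Percent disease control versus untreated scored 12-14 days after application.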

Series [1] relates to Puccinia recondita f. sp. Tritici. Put plainly: Fungicidal activity against Puccinia recondita f. sp. Tritici / wheat / leaf disc curative (brown rust). To be noted: foliar, 24 h, 200 ppm in the applied formulation, wheat leaf segments cv. Kanzler, applied 1 day after inoculation, vs untreated control, read-out: disease control. The class given is in vivo. The essentials:
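Wheat cv. Kanzler leaf segments on agar were inoculated with fungal spore suspension, held dark at 19° C and 75% RH, then sprayed 1 day later with formulated compound diluted in water. Incubation continued at 19° C, 75% RH, 12 h light/12 h dark; percent disease control versus untreated was scored 6 to 8 days after application.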

The test system is the same in series [2]. Nature of the series: Fungicidal activity against Puccinia recondita f. sp. Tritici / wheat / leaf disc preventative (brown rust). The class given is in vivo. To be noted: foliar, 200 ppm in the applied formulation, wheat leaf segments cv. Kanzler, inoculated 1 day after application, vs untreated control, read-out: disease control. An outline of the steps:
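Single evaluation 7–9 d after spraying: % disease control compared with untreated leaf segments. Protocol: cv. Kanzler segments, preventative spray at 200 ppm, spore inoculation at day 1, 19° C., 75% rh, 12 h light/12 h dark.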

In series [3] the test system is Glomerella lagenarium (Colletotrichum lagenarium). Nature of the series: Fungicidal activity against Glomerella lagenarium (Colletotrichum lagenarium) liquid culture / cucumber / preventative (anthracnose). The class given is cell-based. Conditions: Colletotrichum orbiculare, 72 h; 20 ppm in the applied formulation; liquid culture (PDB), growth inhibition measured photometrically 3 to 4 days after application; vs untreated control; read-out: disease control. An outline of the steps: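 Conidia from cryogenic storage were mixed into potato dextrose broth and added to DMSO solutions of test compound in microtiter plates. Plates were incubated at 24° C. and growth inhibition read photometrically 3 to 4 days after application, as percent antifungal activity versus untreated check.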

Regarding `CO/N=C(\C)C(NC(=O)c1ccc(-c2noc(C(F)(F)F)n2)cc1)OC` (stereo not drawn) [Compound 1.7, N-[(2E)-1-methoxy-2-methoxyimino-propyl]-4-[5-(trifluoromethyl)-1,2,4-oxadiazol-3-yl]benzamide], the melting point (usually the temperature of the solid-liquid transition) lay in the range of 100.7 to 106.9 °C. Besides, the pest or weed control at 200 ppm in the series with Phakopsora pachyrhizi was at least 80%. Moreover, the pest or weed control at 200 ppm in series [1] was at least 80%. For the same compound, the pest or weed control at 200 ppm in series [2] was at least 80%. Further, the inhibition of growth at 20 ppm in series [3] is at least 80%.

For the compound `CCO/N=C/C(C)NC(=O)c1ccc(-c2noc(C(F)(F)F)n2)cc1` (stereo not drawn) [Compound 1.8, N-[(2E)-2-ethoxyimino-1-methyl-ethyl]-4-[5-(trifluoromethyl)-1,2,4-oxadiazol-3-yl]benzamide], the melting point fell in the range of 142 to 143 °C. Further, in the series with Phakopsora pachyrhizi, the pest or weed control at 200 ppm was at least 80%. Besides, the pest or weed control at 200 ppm in series [1] is at least 80%. In addition, the pest or weed control at 200 ppm in series [2] is at least 80%. In addition, in series [3], the inhibition of growth at 20 ppm is at least 80%.

As for `CCO/N=C\C(C)NC(=O)c1ccc(-c2noc(C(F)(F)F)n2)cc1` (stereo not drawn) [Compound 1.9, N-[(2Z)-2-ethoxyimino-1-methyl-ethyl]-4-[5-(trifluoromethyl)-1,2,4-oxadiazol-3-yl]benzamide], the melting point lay within 173 to 174 °C. Further, the pest or weed control at 200 ppm in the series with Phakopsora pachyrhizi was at least 80%. Moreover, in series [1], the pest or weed control at 200 ppm was at least 80%. The pest or weed control at 200 ppm in series [2] is at least 80%. For the same compound, the inhibition of growth at 20 ppm in series [3] is at least 80%.

`CON=CCNC(=O)c1ccc(-c2noc(C(F)(F)F)n2)cc1` [Compound 1.10, N-(2-methoxyimino-ethyl)-4-[5-(trifluoromethyl)-1,2,4-oxadiazol-3-yl]benzamide]: the melting point was 155 to 157 °C. In addition, in the series on Phakopsora pachyrhizi, the pest or weed control at 200 ppm is at least 80%. Besides, in series [1], the pest or weed control at 200 ppm is at least 80%. Moreover, the pest or weed control at 200 ppm in series [2] was at least 80%. Besides, the inhibition of growth at 20 ppm in series [3] is at least 80%.

For the compound `CCON=CCNC(=O)c1ccc(-c2noc(C(F)(F)F)n2)cc1` [Compound 1.11, N-(2-ethoxyiminoethyl)-4-[5-(trifluoromethyl)-1,2,4-oxadiazol-3-yl]benzamide], the melting point is 156 to 158 °C. Besides, the pest or weed control at 200 ppm in the series on Phakopsora pachyrhizi is at least 80%. Moreover, the pest or weed control at 200 ppm in series [1] was at least 80%. Moreover, the pest or weed control at 200 ppm in series [2] was at least 80%. Moreover, the inhibition of growth at 20 ppm in series [3] is at least 80%.

Regarding `CCON=C(C)CNC(=O)c1ccc(-c2noc(C(F)(F)F)n2)cc1` [Compound 1.12, N-(2-ethoxyimino-propyl)-4-[5-(trifluoromethyl)-1,2,4-oxadiazol-3-yl]benzamide], the melting point is 135 to 136 °C. Further, in the series with Phakopsora pachyrhizi, the pest or weed control at 200 ppm is at least 80%. Further, in series [1], the pest or weed control at 200 ppm is at least 80%. In addition, the pest or weed control at 200 ppm in series [2] was at least 80%. For the same compound, in series [3], the inhibition of growth at 20 ppm is at least 80%.

Turning to `CO/N=C(\C)CNC(=O)c1ccc(-c2noc(C(F)(F)F)n2)cc1` [Compound 1.13, N-[(2E)-2-methoxyimino-propyl]-4-[5-(trifluoromethyl)-1,2,4-oxadiazol-3-yl]benzamide], the melting point is 145 to 146 °C. For the same compound, the pest or weed control at 200 ppm in the series with Phakopsora pachyrhizi is at least 80%. Further, the pest or weed control at 200 ppm in series [1] is at least 80%. For the same compound, the pest or weed control at 200 ppm in series [2] is at least 80%. Besides, the inhibition of growth at 20 ppm in series [3] is at least 80%.

As for `CO/N=C(/C)CNC(=O)c1ccc(-c2noc(C(F)(F)F)n2)cc1` [Compound 1.14, N-[(2Z)-2-methoxyimino-propyl]-4-[5-(trifluoromethyl)-1,2,4-oxadiazol-3-yl]benzamide], the melting point fell in the range of 151 to 152 °C. Also, the pest or weed control at 200 ppm with Phakopsora pachyrhizi is at least 80%. The pest or weed control at 200 ppm in series [1] is at least 80%. For the same compound, in series [2], the pest or weed control at 200 ppm was at least 80%. In series [3], the inhibition of growth at 20 ppm was at least 80%.

Compound `O=C(NCC=NOCCF)c1ccc(-c2noc(C(F)(F)F)n2)cc1` [Compound 1.148, N-[2-(2-fluoroethoxyimino)ethyl]-4-[5-(trifluoromethyl)-1,2,4-oxadiazol-3-yl]benzamide] registered a melting point of 145 to 146 °C. Further, the pest or weed control at 200 ppm in the series on Phakopsora pachyrhizi was at least 80%. Moreover, the pest or weed control at 200 ppm in series [1] was at least 80%. The pest or weed control at 200 ppm in series [2] was at least 80%. The inhibition of growth at 20 ppm in series [3] is at least 80%.

Regarding `CC(/C=N/OCCF)NC(=O)c1ccc(-c2noc(C(F)(F)F)n2)cc1` (stereo not drawn) [Compound 1.149, N-[(2E)-2-(2-fluoroethoxy-imino)-1-methyl-ethyl]-4-[5-(trifluoromethyl)-1,2,4-oxadiazol-3-yl]benzamide], the melting point lay within 138 to 139 °C. Moreover, the pest or weed control at 200 ppm in the series with Phakopsora pachyrhizi was at least 80%. Besides, the pest or weed control at 200 ppm in series [1] was at least 80%. Moreover, in series [2], the pest or weed control at 200 ppm was at least 80%. The inhibition of growth at 20 ppm in series [3] is at least 80%.

`CC(/C=N\OCCF)NC(=O)c1ccc(-c2noc(C(F)(F)F)n2)cc1` (stereo not drawn) [Compound 1.150, N-[(2Z)-2-(2-fluoroethoxyimino)-1-methyl-ethyl]-4-[5-(trifluoromethyl)-1,2,4-oxadiazol-3-yl]benzamide] came in with a melting point of 172 to 173 °C. In addition, the pest or weed control at 200 ppm in the series with Phakopsora pachyrhizi is at least 80%. In addition, in series [1], the pest or weed control at 200 ppm is at least 80%. For the same compound, in series [2], the pest or weed control at 200 ppm was at least 80%. Besides, the inhibition of growth at 20 ppm in series [3] is at least 80%.

The compound `CC(CNC(=O)c1ccc(-c2noc(C(F)(F)F)n2)cc1)=NOCCF` [Compound 1.151, N-[2-(2-fluoroethoxyimino)propyl]-4-[5-(trifluoromethyl)-1,2,4-oxadiazol-3-yl]benzamide] yielded a melting point of 133 to 134 °C. Also, the pest or weed control at 200 ppm in the series on Phakopsora pachyrhizi was at least 80%. Besides, the pest or weed control at 200 ppm in series [1] was at least 80%. Moreover, the pest or weed control at 200 ppm in series [2] was at least 80%. For the same compound, in series [3], the inhibition of growth at 20 ppm is at least 80%.

`CON=CCCNC(=O)c1ccc(-c2noc(C(F)(F)F)n2)cc1` [Compound 1.152, N-(3-methoxyimino-propyl)-4-[5-(trifluoromethyl)-1,2,4-oxadiazol-3-yl]benzamide] came in with a melting point of 136 to 140 °C. Moreover, in the series with Phakopsora pachyrhizi, the pest or weed control at 200 ppm was at least 80%. Besides, in series [1], the pest or weed control at 200 ppm is at least 80%. In addition, the pest or weed control at 200 ppm in series [2] is at least 80%. Further, the inhibition of growth at 20 ppm in series [3] is at least 80%.

Consider `CCON=CCCNC(=O)c1ccc(-c2noc(C(F)(F)F)n2)cc1` [Compound 1.153, N-(3-ethoxyiminopropyl)-4-[5-(trifluoromethyl)-1,2,4-oxadiazol-3-yl]benzamide], for which the melting point lay in the range of 132 to 136 °C. Moreover, the pest or weed control at 200 ppm in the series on Phakopsora pachyrhizi was at least 80%. In series [1], the pest or weed control at 200 ppm is at least 80%. Moreover, in series [2], the pest or weed control at 200 ppm is at least 80%. In series [3], the inhibition of growth at 20 ppm was at least 80%.

`O=C(NCCC=NO)c1ccc(-c2noc(C(F)(F)F)n2)cc1` [Compound 1.154, N-(3-hydroxyimino-propyl)-4-[5-(trifluoromethyl)-1,2,4-oxadiazol-3-yl]benzamide] showed a melting point of 180 to 183 °C. Moreover, in the series with Phakopsora pachyrhizi, the pest or weed control at 200 ppm was at least 80%. Further, in series [1], the pest or weed control at 200 ppm is at least 80%. For the same compound, the pest or weed control at 200 ppm in series [2] is at least 80%. In addition, the inhibition of growth at 20 ppm in series [3] was at least 80%.
